Measured values from US7902361B2, “Pyrimidin-4-yl-3, 4-thione compounds and their use in therapy” (Cyclacel Limited, priority 2003, dated 2011).

Tests used:
[1] = target: T1, aurora A (Homo sapiens, UniProt O14965); assay: Kinase assay aurora A; assay type: biochemical; settings: Ki calculated (Cheng-Prusoff) from experimentally determined IC50 and Km,ATP; read-out: Kinase Inhibition Ki Aurora A
T1 sequence (O14965 1-403): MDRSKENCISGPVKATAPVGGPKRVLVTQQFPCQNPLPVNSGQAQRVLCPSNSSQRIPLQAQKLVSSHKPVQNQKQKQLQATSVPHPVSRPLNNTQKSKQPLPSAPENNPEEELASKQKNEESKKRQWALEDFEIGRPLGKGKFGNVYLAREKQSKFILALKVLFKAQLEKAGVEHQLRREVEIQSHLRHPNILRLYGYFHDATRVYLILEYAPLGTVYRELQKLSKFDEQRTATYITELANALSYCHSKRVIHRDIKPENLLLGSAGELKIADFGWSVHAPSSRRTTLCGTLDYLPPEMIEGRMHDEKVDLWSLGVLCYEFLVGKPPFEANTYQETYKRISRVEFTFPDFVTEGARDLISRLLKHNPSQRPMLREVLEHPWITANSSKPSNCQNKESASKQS
Protocol: The compounds from the examples above were investigated for their ability to inhibit the enzymatic activity of various protein kinases. This was achieved by measurement of incorporation of radioactive phosphate from ATP into appropriate polypeptide substrates. Recombinant protein kinases and kinase complexes were produced or obtained commercially. Assays were performed using 96-well plates and appropriate assay buffers (typically 25 mM β-glycerophosphate, 20 mM MOPS, 5 mM EGTA, 1 mM DTT, 1 mM […], pH 7.4), into which were added 2-4 μg of active enzyme with appropriate substrates. […] Reactions were stopped on ice, followed by filtration through p81 filterplates or GF/C filterplates (Whatman Polyfiltronics, Kent, UK). After washing 3 times with 75 mM aq orthophosphoric acid, plates were dried, scintillant added and incorporated radioactivity measured in a scintillation counter (TopCount, Packard Instruments, Pangbourne, Berks, UK). Compounds for kinase assay were made up as 10 mM stocks in DMSO and diluted into 10% DMSO in assay buffer.

[2] = target: CDK9/cyclin T1 (Homo sapiens, UniProt P50750); assay: Kinase assay CDK9/cyclin T1; assay type: biochemical; settings: Ki calculated (Cheng-Prusoff) from experimentally determined IC50 and Km,ATP; read-out: Kinase Inhibition Ki CDK9 - cyclin T1
CDK9/cyclin T1, sequence (P50750 whole entry, species assumed): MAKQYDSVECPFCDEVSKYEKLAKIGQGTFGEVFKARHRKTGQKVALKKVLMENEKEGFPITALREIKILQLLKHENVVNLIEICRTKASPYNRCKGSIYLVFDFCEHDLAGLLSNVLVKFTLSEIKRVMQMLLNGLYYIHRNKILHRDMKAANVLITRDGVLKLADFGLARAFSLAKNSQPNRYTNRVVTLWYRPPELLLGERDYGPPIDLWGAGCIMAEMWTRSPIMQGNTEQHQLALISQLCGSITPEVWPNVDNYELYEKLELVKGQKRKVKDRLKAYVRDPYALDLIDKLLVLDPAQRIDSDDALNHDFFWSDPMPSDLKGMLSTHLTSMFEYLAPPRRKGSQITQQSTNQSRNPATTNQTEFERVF
CDK9/cyclin T1, sequence (O60563 whole entry partner, species assumed): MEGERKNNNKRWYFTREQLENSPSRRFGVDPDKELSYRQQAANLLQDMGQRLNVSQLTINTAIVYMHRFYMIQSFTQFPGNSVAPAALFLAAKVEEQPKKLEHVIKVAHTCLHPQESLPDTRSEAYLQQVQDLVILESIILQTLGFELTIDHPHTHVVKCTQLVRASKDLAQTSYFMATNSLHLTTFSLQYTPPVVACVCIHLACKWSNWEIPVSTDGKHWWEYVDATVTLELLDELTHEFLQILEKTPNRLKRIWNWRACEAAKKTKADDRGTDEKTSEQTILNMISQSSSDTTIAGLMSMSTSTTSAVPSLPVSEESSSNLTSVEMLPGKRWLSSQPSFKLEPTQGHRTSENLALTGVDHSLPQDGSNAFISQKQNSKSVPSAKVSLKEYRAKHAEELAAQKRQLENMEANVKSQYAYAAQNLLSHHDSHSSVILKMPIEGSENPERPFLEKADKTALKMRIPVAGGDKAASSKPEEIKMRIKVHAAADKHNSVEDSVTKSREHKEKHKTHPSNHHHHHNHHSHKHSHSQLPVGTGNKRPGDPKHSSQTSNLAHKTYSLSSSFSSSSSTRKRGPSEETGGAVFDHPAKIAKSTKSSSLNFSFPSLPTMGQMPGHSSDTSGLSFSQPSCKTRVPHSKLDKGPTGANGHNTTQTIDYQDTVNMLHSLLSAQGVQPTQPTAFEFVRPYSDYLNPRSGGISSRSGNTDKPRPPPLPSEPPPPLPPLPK
Procedure, shortened: (§1)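 Radiometric filter assays used recombinant kinases or complexes (2-4 μg) with appropriate polypeptide substrates in pH 7.4 β-glycerophosphate/MOPS buffer. Reactions were started with 15 mM MgCl2 and 100 μM ATP containing [γ-32P]-ATP and run at 30° C. Phosphate incorporated into substrate was counted by scintillation after washing.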

[3] = tested on: HIV-1; settings: HIV-1 in human PBMCs, seven days following infection
Protocol: Representative compounds of the present invention were tested for antiviral activity against HIV-1 in human peripheral blood mononuclear cells (PBMCs) using the clinical paediatric HIV strains RoJo or WeJo. PBMCs were cultured under conditions which promote cell survival and HIV replication.
Fresh PBMCs, seronegative for HIV and HBV, were isolated from screened donors (Interstate Blood Bank, Inc. Memphis, Tenn.). Cells were pelleted/washed 2-3 times by low speed centrifugation and re-suspension in PBS to remove contaminating platelets. […] Banded PBMCs were gently aspirated from the resulting interface and subsequently washed with PBS by low speed centrifugation. […] The cells were allowed to incubate at 37° C. […] IL-2 is included in the culture medium to maintain the cell division initiated by the PHA mitogenic stimulation. PBMCs were maintained in this with bi-weekly medium changes until used in the assay protocol. Cells were kept in culture for a maximum of two weeks before being deemed too old for use in assays and discarded. Monocytes were depleted from the culture as the result of adherence to the tissue culture flask.
For the standard PBMC assay, PHA-P stimulated cells from at least two normal donors were pooled, diluted and plated in the interior wells of a 96-well round bottom microplate. Pooling of mononuclear cells from more than one donor was used to minimise the variability observed between individual donors, which results from quantitative and qualitative differences in HIV infection and overall response to the PHA and IL-2 of primary lymphocyte populations. Each plate contained virus/cell control wells (cells plus virus), experimental wells (drug plus cells plus virus) and compound control wells (drug plus media without cells, necessary for MTS monitoring of cytotoxicity). Since HIV-1 is not cytopathic to PBMCs, this allows the use of the same assay plate for both antiviral activity and cytotoxicity measurements. Test drug dilutions were prepared in microtiter tubes and each concentration was placed in appropriate wells using the standard format. A predetermined dilution of virus stock was placed in each test well (final MOI≅0.1). The PBMC cultures were maintained for seven days following infection at 37° C., 5% CO2 After this period, cell-free supernatant samples were collected for analysis of reverse transcriptase activity and/or HIV p24 content. Following removal of supernatant samples, compound cytotoxicity was measured by addition of MTS to the plates for determination of cell viability. Wells were also examined microscopically and any abnormalities were noted.
Tritiated thymidine triphosphate (^3H-TTP, 80 Ci/mmol, NEN) was received in 1:1 dH2O:Ethanol at 1 mCi/mL. Poly rA:oligo dT template:primer (Pharmacia) was prepared as a stock solution, followed by aliquoting and storage at −20° C. The RT reaction buffer was prepared fresh on a daily basis. The final reaction mixture was prepared by combining ^3H-TTP, dH2O, poly rA:oligo dT stock and reaction buffer. This reaction mixture was placed in a round bottom microtiter plate and supernatant containing virus was added and mixed. The plate was incubated at 37° C. for 60 minutes. Following incubation, the reaction volume was spotted onto DE81 filter-mats (Wallac), in a sodium phosphate buffer or 2×SSC (Life Technologies). Next they were washed in distilled water, in 70% ethanol, and then dried. Incorporated radioactivity (counts per minute, CPM) was quantified using standard liquid scintillation techniques.

[4] = target: CDK2/cyclin A (Homo sapiens, UniProt P24941); assay: Kinase assay CDK2/cyclin A; assay type: biochemical; settings: Ki calculated (Cheng-Prusoff) from experimentally determined IC50 and Km,ATP; read-out: Kinase Inhibition Ki CDK2 - cyclin A
Procedure, shortened: (§2)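 Radiometric assays measured transfer of radioactive phosphate from ATP onto polypeptide substrates, using 2-4 μg recombinant active enzyme in buffer typically containing 25 mM β-glycerophosphate, 20 mM MOPS, 5 mM EGTA, 1 mM DTT and 1 mM Na3VO3 at pH 7.4. Reactions were stopped on ice, filtered on P81 or GF/C plates and washed with orthophosphoric acid. Incorporated radioactivity was scintillation-counted.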

[5] = target: CDK1/cyclin B (Homo sapiens, UniProt P06493); assay: Kinase assay CDK1/cyclin B (radioactive phosphate incorporation); assay type: biochemical; settings: Ki calculated (Cheng-Prusoff) from experimentally determined IC50 and Km,ATP; read-out: Kinase Inhibition Ki CDK1 - cyclin B
CDK1/cyclin B, sequence (P06493 whole entry, species assumed): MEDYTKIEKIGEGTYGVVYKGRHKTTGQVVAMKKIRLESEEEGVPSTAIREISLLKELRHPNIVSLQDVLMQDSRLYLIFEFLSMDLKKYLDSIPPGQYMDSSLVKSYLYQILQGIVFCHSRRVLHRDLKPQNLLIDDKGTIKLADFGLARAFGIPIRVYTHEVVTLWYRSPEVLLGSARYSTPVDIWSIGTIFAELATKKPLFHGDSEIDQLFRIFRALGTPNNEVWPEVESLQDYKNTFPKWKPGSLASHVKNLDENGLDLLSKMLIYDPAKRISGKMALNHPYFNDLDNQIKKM
CDK1/cyclin B, sequence (P14635 whole entry partner, species assumed): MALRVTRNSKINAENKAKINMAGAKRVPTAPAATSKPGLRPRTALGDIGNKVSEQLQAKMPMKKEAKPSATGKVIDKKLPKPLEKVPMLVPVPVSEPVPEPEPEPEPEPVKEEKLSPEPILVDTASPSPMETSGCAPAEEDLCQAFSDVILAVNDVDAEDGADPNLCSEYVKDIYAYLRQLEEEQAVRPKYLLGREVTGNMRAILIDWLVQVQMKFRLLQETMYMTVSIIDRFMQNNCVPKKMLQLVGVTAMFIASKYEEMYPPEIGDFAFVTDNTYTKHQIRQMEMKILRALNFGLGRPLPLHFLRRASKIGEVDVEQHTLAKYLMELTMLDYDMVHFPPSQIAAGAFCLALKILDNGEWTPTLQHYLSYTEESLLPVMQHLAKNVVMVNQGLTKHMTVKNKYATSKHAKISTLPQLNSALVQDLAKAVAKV
Procedure, shortened: as §2

[6] = target: CDK4/cyclin D1 (Homo sapiens, UniProt P11802); assay: Kinase assay CDK4/cyclin D1; assay type: biochemical; settings: Ki calculated (Cheng-Prusoff) from experimentally determined IC50 and Km,ATP; read-out: Kinase Inhibition Ki CDK4 - cyclin D1
CDK4/cyclin D1, sequence (P11802 whole entry, species assumed): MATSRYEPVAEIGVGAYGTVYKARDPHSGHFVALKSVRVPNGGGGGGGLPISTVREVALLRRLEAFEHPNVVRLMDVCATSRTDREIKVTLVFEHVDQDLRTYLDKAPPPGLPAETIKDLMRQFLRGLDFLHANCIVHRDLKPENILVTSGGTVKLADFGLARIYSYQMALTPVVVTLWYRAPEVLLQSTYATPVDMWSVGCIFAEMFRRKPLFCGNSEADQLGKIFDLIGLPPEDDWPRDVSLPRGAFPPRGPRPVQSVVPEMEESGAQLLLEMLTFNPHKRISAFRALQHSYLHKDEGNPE
CDK4/cyclin D1, sequence (P24385 whole entry partner, species assumed): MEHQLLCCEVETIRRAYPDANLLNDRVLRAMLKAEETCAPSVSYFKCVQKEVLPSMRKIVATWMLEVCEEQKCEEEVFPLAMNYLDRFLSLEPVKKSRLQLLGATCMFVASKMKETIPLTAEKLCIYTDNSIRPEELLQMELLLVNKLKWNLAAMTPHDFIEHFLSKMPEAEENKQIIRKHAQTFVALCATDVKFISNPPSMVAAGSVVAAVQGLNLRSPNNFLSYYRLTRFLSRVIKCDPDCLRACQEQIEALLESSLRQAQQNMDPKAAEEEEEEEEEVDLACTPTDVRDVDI
Procedure, shortened: as §1

[7] = target: CDK2/cyclin E (Homo sapiens, UniProt P24941); assay: Kinase assay CDK2/cyclin E; assay type: biochemical; settings: Ki calculated (Cheng-Prusoff) from experimentally determined IC50 and Km,ATP; read-out: Kinase Inhibition Ki CDK2 - cyclin E
Procedure, shortened: as §2

[8] = target: CDK7/cyclin H (Homo sapiens, UniProt P50613); assay: Kinase assay CDK7/cyclin H; assay type: biochemical; settings: Ki calculated (Cheng-Prusoff) from experimentally determined IC50 and Km,ATP; read-out: Kinase Inhibition Ki CDK7 - cyclin H
CDK7/cyclin H, sequence (P50613 whole entry, species assumed): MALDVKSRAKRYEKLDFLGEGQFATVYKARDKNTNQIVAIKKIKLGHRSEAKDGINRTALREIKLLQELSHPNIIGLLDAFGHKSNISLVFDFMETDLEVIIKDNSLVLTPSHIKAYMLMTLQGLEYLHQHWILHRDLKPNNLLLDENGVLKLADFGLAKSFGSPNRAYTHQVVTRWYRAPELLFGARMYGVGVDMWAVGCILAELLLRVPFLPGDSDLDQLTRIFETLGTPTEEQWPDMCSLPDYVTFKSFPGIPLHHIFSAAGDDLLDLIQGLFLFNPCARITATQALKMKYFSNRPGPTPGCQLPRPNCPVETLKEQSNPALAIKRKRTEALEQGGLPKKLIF
CDK7/cyclin H, sequence (P51946 whole entry partner, species assumed): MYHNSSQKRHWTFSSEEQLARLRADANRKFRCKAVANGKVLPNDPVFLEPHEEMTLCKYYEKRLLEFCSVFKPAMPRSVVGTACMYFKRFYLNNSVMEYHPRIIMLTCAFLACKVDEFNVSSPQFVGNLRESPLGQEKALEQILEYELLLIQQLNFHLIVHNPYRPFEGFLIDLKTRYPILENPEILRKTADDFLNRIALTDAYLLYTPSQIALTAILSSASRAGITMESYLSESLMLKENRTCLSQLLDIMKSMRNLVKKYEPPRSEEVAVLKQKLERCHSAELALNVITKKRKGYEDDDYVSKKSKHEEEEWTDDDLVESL
Procedure, shortened: as §1

[9] = target: T2, GSK3β (Homo sapiens, UniProt P49841); assay: GSK3β in vitro kinase assay; assay type: biochemical; settings: recombinant human GSK3β, 100 μM ATP
T2 construct: purchased New England Biolabs
T2 sequence (P49841 whole entry): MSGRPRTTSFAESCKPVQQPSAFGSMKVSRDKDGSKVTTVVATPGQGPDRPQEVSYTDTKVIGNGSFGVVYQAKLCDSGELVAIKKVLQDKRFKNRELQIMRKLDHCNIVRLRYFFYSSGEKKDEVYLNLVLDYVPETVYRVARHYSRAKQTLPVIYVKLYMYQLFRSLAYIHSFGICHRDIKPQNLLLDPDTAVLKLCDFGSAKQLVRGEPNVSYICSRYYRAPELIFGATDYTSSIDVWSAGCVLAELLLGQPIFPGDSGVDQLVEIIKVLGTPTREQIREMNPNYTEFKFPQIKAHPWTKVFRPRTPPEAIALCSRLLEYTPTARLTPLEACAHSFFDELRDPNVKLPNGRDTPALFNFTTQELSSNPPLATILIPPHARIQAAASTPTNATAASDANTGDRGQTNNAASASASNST
Protocol: Both isoforms of GSK3 (α and β) are involved in the regulation of glycogen synthase activity—key enzyme in the glycogen metabolism.
(§3) A 10-point titration was set up to determine the IC50 values of selected example compounds against GSK3β. Assays were performed using 96-well microtiter plates with a final volume of 25 μL per well. Each assay contained 1.5 units of GSK3β(New England Biolabs), 200 μM CREB phosphopeptide ([…]pSYR, Alta Biosciences), 20 mM Tris HCl pH7.5, 5 mM DTT, 15 mM MgCl2 supplemented with 100 μM ATP and 0.5 μCi of [γ-^32P] ATP plus or minus inhibitor in 2% DMSO. Assays were carried out for 30 minutes at 30° C. before stopping the reaction by the addition of an equal volume of 75 mM aqueous phosphoric acid. Samples were then spotted onto a p81 filterplate (Whatman) and a vacuum was applied. Wells were washed 3 times with 200 μL of dilute aqueous phosphoric acid before the addition of 50 μL Microscint 40 per well. Incorporation of radioactivity was determined on a Topcount microplate scintillation counter (Packard).

[10] = target: T3, GSK3α (Homo sapiens, UniProt P49840); assay: GSK3α in vitro kinase assay; assay type: biochemical; settings: recombinant human GSK3α, 100 μM ATP
T3 construct: purchased Upstate
T3 sequence (P49840 whole entry): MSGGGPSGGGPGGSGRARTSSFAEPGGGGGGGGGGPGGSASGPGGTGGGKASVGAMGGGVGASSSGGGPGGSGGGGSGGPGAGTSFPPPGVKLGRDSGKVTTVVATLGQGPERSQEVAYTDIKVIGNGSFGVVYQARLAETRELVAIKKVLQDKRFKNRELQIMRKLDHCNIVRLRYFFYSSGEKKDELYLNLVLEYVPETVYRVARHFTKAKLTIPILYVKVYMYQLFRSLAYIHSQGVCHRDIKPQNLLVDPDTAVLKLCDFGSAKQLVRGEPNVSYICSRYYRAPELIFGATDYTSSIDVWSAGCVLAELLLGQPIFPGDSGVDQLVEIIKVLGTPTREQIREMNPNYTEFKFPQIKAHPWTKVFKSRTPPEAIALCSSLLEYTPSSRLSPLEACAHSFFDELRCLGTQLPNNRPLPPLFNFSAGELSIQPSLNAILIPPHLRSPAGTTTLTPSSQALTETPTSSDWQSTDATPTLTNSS
Protocol: Both isoforms of GSK3 (α and β) are involved in the regulation of glycogen synthase activity—key enzyme in the glycogen metabolism. The inhibitory potency of example compounds was determined using in vitro kinase assays with recombinant human GSK3-α and -β; the IC50 values determined are presented in Table 9.
as §3
GSK3α (Upstate) was assayed exactly as described above except that 1 ng of enzyme was added per assay point.

IC50 [9] [µM] | IC50 [10] [µM] | SMILES | Ki [1] [µM] | Ki [2] [µM] | anti-HIV activity based on TI (therapeutic index: TC50/IC50) [3] | Ki [4] [µM] | Ki [5] [µM] | Ki [6] [µM] | Ki [7] [µM] | Ki [8] [µM]
– | – | Cc1c(-c2ccnc(Nc3ccc(F)cc3)n2)sc(=O)n1C [Compound 2, 5-[2-(4-Fluoro-phenylamino)-pyrimidin-4-yl]-3,4-dimethyl-3H-thiazol-2-one] | 0.35 | 0.0008 | Active | – | – | – | – | –
– | – | Cc1ccc(Nc2nccc(-c3sc(=O)n(C)c3C)n2)cc1[N+](=O)[O-] [Compound 11, 3,4-Dimethyl-5-[2-(4-methyl-3-nitro-phenylamino)-pyrimidin-4-yl]-3H-thiazol-2-one] | – | 0.0004 | Active | 0.22 | 0.72 | 0.38 | 0.061 | 0.036
– | – | Cc1cc(Nc2nccc(-c3sc(=O)n(C)c3C)n2)ccc1Cl [Compound 15, 5-[2-(4-Chloro-3-methyl-phenylamino)-pyrimidin-4-yl]-3,4-dimethyl-3H-thiazol-2-one] | – | 0.045 | Active | 0.46 | 0.6 | 9.6 | 0.58 | –
– | – | Cc1c(-c2ccnc(Nc3cccc(C#N)c3)n2)sc(=O)n1C [Compound 16, 3-[4-(3,4-Dimethyl-2-oxo-2,3-dihydro-thiazol-5-yl)-pyrimidin-2-ylamino]-benzonitrile] | – | 0.0019 | Active | 0.042 | 0.4 | 0.1 | 0.0005 | 0.0068
– | – | Cc1ccc(Nc2nccc(-c3sc(=O)n(C)c3C)n2)cc1C(F)(F)F [Compound 21, 3,4-Dimethyl-5-[2-(4-methyl-3-trifluoromethyl-phenylamino)-pyrimidin-4-yl]-3H-thiazol-2-one] | – | 0.17 | Active | 0.55 | 2.3 | – | 0.19 | 0.22
– | – | CCn1c(C)c(-c2ccnc(Nc3cccc([N+](=O)[O-])c3)n2)sc1=O [Compound 23, 3-Ethyl-4-methyl-5-[2-(3-nitro-phenylamino)-pyrimidin-4-yl]-3H-thiazol-2-one] | – | 0.0003 | Active | 0.062 | 0.29 | 0.87 | 0.016 | 0.0014
– | – | CCn1c(C)c(-c2ccnc(Nc3ccc(OC)nc3)n2)sc1=O [Compound 33, 3-Ethyl-5-[2-(6-methoxy-pyridin-3-ylamino)-pyrimidin-4-yl]-4-methyl-3H-thiazol-2-one] | – | 0.0024 | Active | 0.76 | 0.03 | 0.035 | 0.05 | 0.023
– | – | Cc1c(-c2ccnc(Nc3ccc(N4CCNCC4)cc3)n2)sc(=O)n1C [Compound 38, 3,4-Dimethyl-5-[2-(4-piperazin-1-yl-phenylamino)-pyrimidin-4-yl]-3H-thiazol-2-one] | 0.088 | 0.01 | Active | 0.3 | 0.47 | 0.05 | 0.18 | 0.038
0.096 | – | Cc1c(-c2ccnc(Nc3ccc(N4CCN(Cc5ccccc5)CC4)cc3)n2)sc(=O)n1C [Compound 69, 5-{2-[4-(4-Benzyl-piperazin-1-yl)-phenylamino]-pyrimidin-4-yl}-3,4-dimethyl-3H-thiazol-2-one] | 0.039 | 0.021 | – | 0.95 | 1.7 | 0.1 | 0.16 | 0.012
0.0068 | 0.0036 | Cc1c(-c2ccnc(Nc3ccc(C#N)c(C(F)(F)F)c3)n2)sc(=O)n1C [Compound 70, 4-[4-(3,4-Dimethyl-2-oxo-2,3-dihydro-thiazol-5-yl)-pyrimidin-2-ylamino]-2-trifluoromethyl-benzonitrile] | – | – | – | – | – | – | – | –
0.0083 | – | Cc1c(-c2ccnc(Nc3ccc(S(=O)(=O)NCCO)cc3)n2)sc(=O)n1C [Compound 72, 4-[4-(3,4-Dimethyl-2-oxo-2,3-dihydro-thiazol-5-yl)-pyrimidin-2-ylamino]-N-(2-hydroxy-ethyl)-benzenesulfonamide] | 0.51 | 0.011 | – | 0.0029 | 0.0054 | 0.83 | 0.0005 | 1.2
0.0709 | 0.0615 | Cc1c(-c2ccnc(Nc3cccc(S(=O)(=O)NCc4ccccc4)c3)n2)sc(=O)n1C [Compound 77, N-Benzyl-3-[4-(3,4-dimethyl-2-oxo-2,3-dihydro-thiazol-5-yl)-pyrimidin-2-ylamino]-benzenesulfonamide] | – | – | – | – | – | – | – | –

SMILES | IC50 [9] [µM] | IC50 [10] [µM] | Ki [1] [µM] | Ki [2] [µM] | anti-HIV activity based on TI (therapeutic index: TC50/IC50) [3] | Ki [4] [µM] | Ki [5] [µM] | Ki [6] [µM] | Ki [7] [µM] | Ki [8] [µM]
CC(=O)NCc1ccc(Nc2nccc(-c3sc(=O)n(C)c3C)n2)cc1 [Compound 59, N-{4-[4-(3,4-Dimethyl-2-oxo-2,3-dihydro-thiazol-5-yl)-pyrimidin-2-ylamino]-benzyl}-acetamide] | 0.0183 | – | 0.11 | 0.007 | Active | 0.16 | 0.085 | 0.097 | 0.0016 | 0.21
Cc1c(-c2ccnc(Nc3cccc(S(N)(=O)=O)c3)n2)sc(=O)n1C [Compound 60, 3-[4-(3,4-Dimethyl-2-oxo-2,3-dihydro-thiazol-5-yl)-pyrimidin-2-ylamino]-benzenesulfonamide] | 0.0018 | – | 0.03 | 0.0003 | Active | 0.021 | 0.021 | 0.022 | 0.0034 | 0.039
